Assay results: US10039741B2, “Use of delta tocopherol for the treatment of lysosomal storage disorders” (The United States of America, as represented by the …, priority 2010, dated 2018)

Tests used:
NPC1 = test: Protein expression (Western blot); assay type: cell-based, human; conditions: NPC fibroblasts
Procedure: Cell lysates were prepared as previously described (31) and proteins in lysates were quantified using Bicinchoninic Acid (BCA) Protein Assay Kit (Sigma-Aldrich). Samples were heated at 65C for 10 min before resolved by SDS-PAGE under reducing conditions. Proteins were transferred to PVDF membranes (Bio-Rad Laboratory) using either Criterion Blotter (Bio-Rad Laboratory) or iBlot dry blotting devices (Invitrogen). For NPC1 and HMG-CoA reductase detection, rabbit polyclonal antibodies against NPC1 (Abcam, cat #ab36983, 1:2000) or HMG-CoA reductase (Millipore, cat #07-457, 1:1000) were used, respectively. A peroxidase-conjugated donkey anti-rabbit IgG (Santa Cruz) was used as secondary antibody at a 1:500 dilution.

NPC fibroblasts = test: Lipid measurement by mass spectrometry (GC/MS); assay type: cell-based, human; conditions: 80 μM α-tocopherol or 40 uM δ-tocopherol for 5 days
Procedure: (§1) Effects of δ-tocopherol and α-tocopherols on (FIG. 4A) free cholesterol, (FIG. 4B) cholesterol ester and (FIG. 4C) sphingomyelin in NPC cells. NPC or WT cells were treated with DMSO, 80 μM α-tocopherol or 40 uM δ-tocopherol for 5 days. Cell pellets were collected and extracted for lipids. FC EC and sphingomyelin levels were measured by GC/MS. (FIG. 4D) Effects of δ-tocopherols and α-tocopherols on cholesterol efflux.
(§2) Cell pellets were collected from 100-mm dishes and washed once with 10 ml PBS. Proteins were assayed using the BCA kit (Sigma-Aldrich) and lipids were extracted by modified Bligh and Dyer procedure (29) from the cells. Internal standards were added based on protein concentration that included N12:0 sphingomyelin, D7-cholesterol, 17:0 cholesterol ester (Avanti Polar Lipids, Inc). A portion of the lipid extract was used for detection of sphingomyelins using direct infusion mass spectrometric assay with lithium hydroxide for facilitating ionization and the rest was used to convert cholesterol and its ester into acetate by derivatization. The derivatization was performed by treating the dried crude lipid extract with solutions of 1 M acetic acid with 1 M DMAP in chloroform and 1 M EDC in chloroform at 50° C. for 2 hours. The derivatized product was extracted with hexane and analyzed by direct infusion mass spectrometric assay with 5% ammonium hydroxide for facilitating ionization.
(§3) A triple-quadrupole mass spectrometer equipped with an electrospray was used for analysis of lipids in positive mode. Sphingomyelins, cholesterol and cholesterol esters were detected by neutral loss scan of 213 (collision energy: 50 V), neutral loss scan of 77 (collision energy: 14 V) and precursor ion scan of m/z 369 (collision energy: 14 V) respectively. Data processing of mass spectrometric analyses including ion peak selection, data transferring, peak intensity comparison and quantitation was conducted using self-programmed Microsoft Excel macros (30).

wild type cells = test: Lipid measurement by mass spectrometry (GC/MS); assay type: cell-based, human
Procedure: as §1, §2, §3

[1] = test system: baby hamster kidney cells; test: Cholesterol efflux; assay type: cell-based
[2] = wild type cells, 80 μM α-tocopherol or 40 uM δ-tocopherol for 5 days

## Cc1cc(O)cc2c1O[C@](C)(CCC[C@H](C)CCC[C@H](C)CCCC(C)C)CC2 [δ-tocopherol]
NPC1
  expression of NPC-1 protein: not changed
NPC1; listed as Delta-tocopherol
  expression of NPC-1 protein: did not change
NPC fibroblasts; NPCD cells
  amount of cholesterol ester: significantly reduced
  sphingomyelin amount: not significantly changed
NPC fibroblasts; NPCD fibroblasts
  free cholesterol level: nearly recovered to the normal level as in the wild type cells
Wild type cells; normal (WT) cells, 5 days
  free cholesterol level: reduced slightly
Wild type cells; [2]
  amount of cholesterol ester: significantly reduced
  sphingomyelin amount: not significantly changed
[1]
  cholesterol efflux: significantly increased
